{"source": "patent US7579325B2", "about": "“Drugs containing reduced of vitamin B2” (Eisai R & D Management Co., Ltd., priority 2001, dated 2009)", "key": {"[1]": {"tested_on": "Staphylococcus aureus BO-72 strain", "assay": "Effect on Staphylococcus aureus-infected model (mouse survival)", "assay_type": "in vivo", "conditions": "for survival number / survival rate %: male ICR mice, 10 per group, 10 days after inoculation", "experimental": "(§1) Riboflavin sodium phosphate (FMN-Na, JP grade) and leucoflavin sodium phosphate (FMN-H2) prepared in Example 1 were used.\nMale mice (Slc: ICR, 8-week old) (10 mice per each test group) was administered intraperitoneally with each of riboflavin sodium phosphate (dosage: 25, 50 and 100 mg/kg in dosage volumes of 0.25, 0.5 and 1 ml, respectively) and leucoflavin phosphate (dosage: 2.5, 5 and 10 mg/kg in dosage volumes of 0.25, 0.5 and 1 ml, respectively) which had been dissolved in physiological saline and sterilized by filtration. Twenty-four hours after the administration, Staphylococcus aureus BO-72 strain was administered intravenously at a dose of 8.7×10^7 CFU/mouse (suspended in 0.2 ml of physiological saline), and the survival rate was determined 10 days after the inoculation. In the control group, 1.0 ml of physiological saline was administered intraperitoneally instead of the drugs. The determination of the medicinal efficacy was conducted by χ^2 test."}, "[2]": {"tested_on": "E. coli E01292 strain", "assay": "Effect on E. coli-infected model (mouse survival)", "assay_type": "in vivo", "conditions": "for survival number / survival rate %: male ICR mice, 10 per group, 4 days after inoculation", "experimental": "Twelve mg of riboflavin sodium phosphate (FMN-Na, JP grade) was dissolved in 40 ml of physiological saline and then added and mixed with 480 mg of sodium hydrosulfite to produce leucoflavin phosphate (FMN-H2).\nMale mice (Slc: ICR, 8-week old) (10 mice per each test group) was administered intraperitoneally with each of riboflavin sodium phosphate (dosage: 12.5, 25, 50 and 100 mg/kg in dosage volumes of 0.125, 0.25, 0.5 and 1 ml, respectively) and leucoflavin phosphate (dosage: 1.25, 2.5, 5 and 10 mg/kg in dosage volumes of 0.125, 0.25, 0.5 and 1 ml, respectively) which had been dissolved in physiological saline and sterilized by filtration. Twenty-four hours after the administration, E. coli E01292 strain was inoculated subcutaneously at a dose of 5.3×10^7 CFU/mouse (suspended in 0.2 ml of physiological saline), and the survival rate was determined 4 days after the inoculation. In the control group, 1.0 ml of physiological saline was administered intraperitoneally instead of the drugs. The determination of the medicinal efficacy was conducted by χ^2 test."}, "[3]": {"assay": "Effect on endotoxin shock model (LPS, mouse survival)", "assay_type": "in vivo, mice", "conditions": "for survival number / survival rate %: male ICR mice, 10 per group, 4 days after administration", "experimental": "as §1\nMale mice (Slc: ICR, 6-week old) (10 mice per each test group) was administered intraperitoneally with lipopolysaccharide from E. coli serum type 0111-B4 (Sigma; abbreviated as “LPS” hereinbelow) at a dose of 15 mg/kg.\nSix hours after the administration, each of riboflavin sodium phosphate (dosage: […] in dosage volumes of 0.25, 0.5 and 1 ml, respectively) and leucoflavin phosphate (dosage: 2.5, 5 and 10 mg/kg in dosage volumes of 0.25, 0.5 and 1 ml, respectively) which had been dissolved in physiological saline and sterilized by filtration was administered intraperitoneally. The survival rate was determined 4 days after the administration. In the control group, 1.0 ml of physiological saline was administered intraperitoneally instead of the drugs. The determination of the medicinal efficacy was conducted by χ^2 test."}, "[4]": {"conditions": "25 mg/kg i.p. 24 h before i.v. S. aureus"}, "[5]": {"conditions": "50 mg/kg i.p. 24 h before i.v. S. aureus"}, "[6]": {"conditions": "100 mg/kg i.p. 24 h before i.v. S. aureus"}, "[7]": {"conditions": "12.5 mg/kg i.p. 24 h before s.c. E. coli inoculation"}, "[8]": {"conditions": "25 mg/kg i.p. 24 h before s.c. E. coli inoculation"}, "[9]": {"conditions": "50 mg/kg i.p. 24 h before s.c. E. coli inoculation"}, "[10]": {"conditions": "100 mg/kg i.p. 24 h before s.c. E. coli inoculation"}, "[11]": {"conditions": "5 mg/kg i.p. 6 h after LPS 15 mg/kg i.p."}, "[12]": {"conditions": "10 mg/kg i.p. 6 h after LPS 15 mg/kg i.p."}, "[13]": {"conditions": "20 mg/kg i.p. 6 h after LPS 15 mg/kg i.p."}, "[14]": {"conditions": "2.5 mg/kg i.p. 24 h before i.v. S. aureus"}, "[15]": {"conditions": "5 mg/kg i.p. 24 h before i.v. S. aureus"}, "[16]": {"conditions": "10 mg/kg i.p. 24 h before i.v. S. aureus"}, "[17]": {"conditions": "1.25 mg/kg i.p. 24 h before s.c. E. coli inoculation"}, "[18]": {"conditions": "2.5 mg/kg i.p. 24 h before s.c. E. coli inoculation"}, "[19]": {"conditions": "5 mg/kg i.p. 24 h before s.c. E. coli inoculation"}, "[20]": {"conditions": "10 mg/kg i.p. 24 h before s.c. E. coli inoculation"}, "[21]": {"conditions": "2.5 mg/kg i.p. 6 h after LPS 15 mg/kg i.p."}}}
{"compound": "Cc1cc2nc3c(=O)[nH]c(=O)nc-3n(C[C@H](O)[C@H](O)[C@H](O)COP(=O)(O)O)c2cc1C", "note": "[VB2Na, riboflavin sodium phosphate, reference compound]", "values": [{"measurement": "survival number", "setting": "[1]; [4]", "value": 2}, {"measurement": "survival rate %", "setting": "[1]; [4]", "value": 20, "unit": "%"}, {"measurement": "survival number", "setting": "[1]; [5]", "value": 4}, {"measurement": "survival rate %", "setting": "[1]; [5]", "value": 40, "unit": "%"}, {"measurement": "survival number", "setting": "[1]; [6]", "value": 7}, {"measurement": "survival rate %", "setting": "[1]; [6]", "value": 70, "unit": "%"}, {"measurement": "survival number", "setting": "[2]; [7]", "value": 1}, {"measurement": "survival rate %", "setting": "[2]; [7]", "value": 10, "unit": "%"}, {"measurement": "survival number", "setting": "[2]; [8]", "value": 3}, {"measurement": "survival rate %", "setting": "[2]; [8]", "value": 30, "unit": "%"}, {"measurement": "survival number", "setting": "[2]; [9]", "value": 5}, {"measurement": "survival rate %", "setting": "[2]; [9]", "value": 50, "unit": "%"}, {"measurement": "survival number", "setting": "[2]; [10]", "value": 9}, {"measurement": "survival rate %", "setting": "[2]; [10]", "value": 90, "unit": "%"}, {"measurement": "survival number", "setting": "[3]; [11]", "value": 3}, {"measurement": "survival rate %", "setting": "[3]; [11]", "value": 30, "unit": "%"}, {"measurement": "survival number", "setting": "[3]; [12]", "value": 4}, {"measurement": "survival rate %", "setting": "[3]; [12]", "value": 40, "unit": "%"}, {"measurement": "survival number", "setting": "[3]; [13]", "value": 7}, {"measurement": "survival rate %", "setting": "[3]; [13]", "value": 70, "unit": "%"}]}
{"compound": "Cc1cc2c(cc1C)N(C[C@H](O)[C@H](O)[C@H](O)COP(=O)(O)O)c1[nH]c(=O)[nH]c(=O)c1N2", "note": "[FMN-H2, leucoflavin phosphate]", "values": [{"measurement": "survival number", "setting": "[1]; [14]", "value": 3}, {"measurement": "survival rate %", "setting": "[1]; [14]", "value": 30, "unit": "%"}, {"measurement": "survival number", "setting": "[1]; [15]", "value": 6}, {"measurement": "survival rate %", "setting": "[1]; [15]", "value": 60, "unit": "%"}, {"measurement": "survival number", "setting": "[1]; [16]", "value": 8}, {"measurement": "survival rate %", "setting": "[1]; [16]", "value": 80, "unit": "%"}, {"measurement": "infection-protective effect against Staphylococcus aureus compared with riboflavin sodium phosphate", "setting": "[1]; mice, from Table 2", "value": "about 10 fold"}, {"measurement": "survival number", "setting": "[2]; [17]", "value": 0}, {"measurement": "survival rate %", "setting": "[2]; [17]", "value": 10, "unit": "%"}, {"measurement": "survival number", "setting": "[2]; [18]", "value": 4}, {"measurement": "survival rate %", "setting": "[2]; [18]", "value": 40, "unit": "%"}, {"measurement": "survival number", "setting": "[2]; [19]", "value": 6}, {"measurement": "survival rate %", "setting": "[2]; [19]", "value": 60, "unit": "%"}, {"measurement": "survival number", "setting": "[2]; [20]", "value": 9}, {"measurement": "survival rate %", "setting": "[2]; [20]", "value": 90, "unit": "%"}, {"measurement": "infection-protective effect against E. coli compared with riboflavin sodium phosphate", "setting": "[2]; mice, from Table 1", "value": "about 10 fold"}, {"measurement": "survival number", "setting": "[3]; [21]", "value": 2}, {"measurement": "survival rate %", "setting": "[3]; [21]", "value": 20, "unit": "%"}, {"measurement": "survival number", "setting": "[3]; [11]", "value": 6}, {"measurement": "survival rate %", "setting": "[3]; [11]", "value": 60, "unit": "%"}, {"measurement": "survival number", "setting": "[3]; [12]", "value": 8}, {"measurement": "survival rate %", "setting": "[3]; [12]", "value": 80, "unit": "%"}, {"measurement": "life-saving effect on endotoxin shock compared with riboflavin sodium phosphate", "setting": "[3]; mice, from Table 3", "value": "about 2 fold"}]}
